Source: ChEMBL document CHEMBL1641541, “Synthesis and antitrypanosomal evaluation of derivatives of N-benzyl-1,2-dihydroquinolin-6-ols: Effect of core substitutions and salt formation” (Bioorg Med Chem, 2011)
The source made the active and inactive calls. The rule behind the calls is not given here.

Key:
[1] = test system: L6; assay: Cytotoxicity against rat L6 cells after 70 hrs by alamar blue assay; assay type: cell-based; conditions: L6, 70 h
[2] = test system: Trypanosoma brucei rhodesiense; assay: Antitrypanosomal activity against bloodstream form of Trypanosoma brucei rhodesiense STIB900 after 70 hrs by alamar blue assay; assay type: functional, organism-based; conditions: STIB900, 70 h
[3] = test system: Trypanosoma brucei rhodesiense; assay: Antitrypanosomal activity against bloodstream form of Trypanosoma brucei rhodesiense STIB900 infected in NMRI mouse assessed as suppression of parasitemia level in mouse tail blood at 10 mg/kg, ip qd for 4 consecutive days measured 5 days post infection; assay type: functional, organism-based; parameters: dose 10 mg/kg
[4] = test system: Trypanosoma brucei; assay: Antitrypanosomal activity against bloodstream form of Trypanosoma brucei s427 after 72 hrs by MTT assay; assay type: functional, organism-based; conditions: s427, 72 h
[5] = test system: Trypanosoma brucei rhodesiense; assay: Antitrypanosomal activity against bloodstream form of Trypanosoma brucei rhodesiense STIB900 infected in NMRI mouse assessed as suppression of parasitemia level in mouse tail blood at 50 mg/kg, ip qd for 4 consecutive days measured 5 days post infection; assay type: functional, organism-based; parameters: dose 50 mg/kg
[6] = test system: Trypanosoma brucei rhodesiense; assay: Antitrypanosomal activity against bloodstream form of Trypanosoma brucei rhodesiense STIB900 infected in NMRI mouse assessed as day of parasitemia relapse at 50 mg/kg, ip qd for 4 consecutive days; assay type: functional
[7] = Chemical stability of the compound in 100 mM phosphate buffer at pH 7.4; assay type: physicochemical
[8] = test system: Trypanosoma brucei rhodesiense; assay: Antitrypanosomal activity against bloodstream form of Trypanosoma brucei rhodesiense STIB900 infected in NMRI mouse assessed as suppression of parasitemia level in mouse tail blood at 5 mg/kg, ip qd for 4 consecutive days measured 5 days post infection; assay type: functional, organism-based; parameters: dose 5 mg/kg

IC50 [2]	IC50 [4]	Structure (SMILES)	IC50 [1]	further results
0.0058 µM	–	N=C(N)c1ccc(/N=N/Nc2ccc(C(=N)N)cc2)cc1 [DIMINAZENE]	5 µM	Activity [3]: Active
0.011 µM	0.041 µM	COc1ccccc1CN1c2ccc(OC(C)=O)cc2C(C)=CC1(C)C	17 µM	Activity [5]: Active
4.5 µM	20 µM	CC(=O)Oc1ccc2c(c1)C(c1ccccc1)=CC(C)(C)N2Cc1ccccc1	49 µM	–
–	> 100 µM	COc1cc(OC(C)=O)cc2c1N(Cc1ccccc1)C(C)(C)C=C2C	–	–
41 µM	–	CCOc1ccc2c(c1)C(C)=CC(C)(C)N2Cc1ccccc1	97 µM	Activity [6]: inactive
0.072 µM	0.49 µM	CC(=O)Oc1c(Cl)cc2c(c1Cl)C(C)=CC(C)(C)N2Cc1ccccc1	110 µM	–
0.051 µM	0.068 µM	CC1=CC(C)(C)N(Cc2ccc(F)c(F)c2)c2ccc(O)cc21	11 µM	–
140 µM	–	CCOc1ccc2c(c1)C(C)=CC(C)(C)N2Cc1ccc(F)c(F)c1	90 µM	Activity [5]: inactive; Activity [6]: inactive
9 µM	15 µM	CC(=O)Oc1cc2c(cc1-c1ccc(C(F)(F)F)cc1)N(Cc1ccccc1)C(C)(C)C=C2C	> 190 µM	–
0.013 µM	0.038 µM	CC1=CC(C)(C)N(Cc2ccccc2)c2ccc(O)cc21.Cl	11 µM	Activity [5]: Active; Stability [7]: Unstable
–	0.031 µM	CC(=O)Oc1cc2c(cc1C)N(Cc1ccccc1)C(C)(C)C=C2C	–	–
0.025 µM	0.079 µM	CC(=O)Oc1ccc2c(c1)C(C)=CC(C)(C)N2Cc1ccc(F)c(F)c1	17 µM	–
43 µM	9.2 µM	CC(=O)Oc1cc(C)c2c(c1)C(C)=CC(C)(C)N2Cc1ccccc1	48 µM	–
0.014 µM	0.045 µM	COc1ccccc1CN1c2ccc(O)cc2C(C)=CC1(C)C.Cl	12 µM	Activity [5]: Active; Stability [7]: Unstable
–	0.11 µM	Cc1ccc(C(=O)Nc2ccc(S(=O)(=O)O)c3cc(S(=O)(=O)O)cc(S(=O)(=O)O)c23)cc1NC(=O)c1cccc(NC(=O)Nc2cccc(C(=O)Nc3cc(C(=O)Nc4ccc(S(=O)(=O)O)c5cc(S(=O)(=O)O)cc(S(=O)(=O)O)c45)ccc3C)c2)c1 [SURAMIN]	–	–
0.28 µM	0.97 µM	CC(=O)Oc1ccc2c(c1)C(C)=CC(C)(C)N2Cc1ccc(C(C)C)cc1	10 µM	–
0.012 µM	0.058 µM	CC(=O)Oc1ccc2c(c1)C(C)=CC(C)(C)N2Cc1ccccc1	18 µM	Activity ([6]; route intraperitoneal): 12.75 days
0.0013 µM	0.012 µM	N=C(N)c1ccc(OCCCCCOc2ccc(C(=N)N)cc2)cc1 [PENTAMIDINE]	25 µM	Activity [8]: Active
0.042 µM	0.22 µM	CC(=O)Oc1cc2c(cc1Cl)N(Cc1ccccc1)C(C)(C)C=C2C	22 µM	–
